Target: T1, sGC α1/β1 heterodimer (Homo sapiens, UniProt Q02108+Q02153)
T1 construct: expressed in transfected cells
T1 sequence (Q02108 1-690): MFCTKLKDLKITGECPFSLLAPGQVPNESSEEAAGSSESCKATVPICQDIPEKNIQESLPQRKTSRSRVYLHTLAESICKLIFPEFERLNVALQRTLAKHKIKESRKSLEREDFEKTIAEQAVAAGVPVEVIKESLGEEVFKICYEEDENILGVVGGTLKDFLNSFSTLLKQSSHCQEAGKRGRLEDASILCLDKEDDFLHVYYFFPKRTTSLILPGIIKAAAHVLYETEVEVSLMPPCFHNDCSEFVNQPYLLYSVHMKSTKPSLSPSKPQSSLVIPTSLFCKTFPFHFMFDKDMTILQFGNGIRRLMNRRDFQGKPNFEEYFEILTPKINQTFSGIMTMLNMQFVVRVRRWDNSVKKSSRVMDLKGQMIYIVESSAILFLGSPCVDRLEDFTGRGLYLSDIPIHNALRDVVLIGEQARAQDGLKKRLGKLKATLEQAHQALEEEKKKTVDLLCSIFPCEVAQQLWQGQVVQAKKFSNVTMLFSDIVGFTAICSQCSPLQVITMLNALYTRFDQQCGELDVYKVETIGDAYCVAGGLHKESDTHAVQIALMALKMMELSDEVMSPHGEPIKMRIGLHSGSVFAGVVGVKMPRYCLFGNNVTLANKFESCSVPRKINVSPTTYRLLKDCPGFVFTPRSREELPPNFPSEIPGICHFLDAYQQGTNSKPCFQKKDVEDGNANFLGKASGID
T1 sequence (Q02153 1-619): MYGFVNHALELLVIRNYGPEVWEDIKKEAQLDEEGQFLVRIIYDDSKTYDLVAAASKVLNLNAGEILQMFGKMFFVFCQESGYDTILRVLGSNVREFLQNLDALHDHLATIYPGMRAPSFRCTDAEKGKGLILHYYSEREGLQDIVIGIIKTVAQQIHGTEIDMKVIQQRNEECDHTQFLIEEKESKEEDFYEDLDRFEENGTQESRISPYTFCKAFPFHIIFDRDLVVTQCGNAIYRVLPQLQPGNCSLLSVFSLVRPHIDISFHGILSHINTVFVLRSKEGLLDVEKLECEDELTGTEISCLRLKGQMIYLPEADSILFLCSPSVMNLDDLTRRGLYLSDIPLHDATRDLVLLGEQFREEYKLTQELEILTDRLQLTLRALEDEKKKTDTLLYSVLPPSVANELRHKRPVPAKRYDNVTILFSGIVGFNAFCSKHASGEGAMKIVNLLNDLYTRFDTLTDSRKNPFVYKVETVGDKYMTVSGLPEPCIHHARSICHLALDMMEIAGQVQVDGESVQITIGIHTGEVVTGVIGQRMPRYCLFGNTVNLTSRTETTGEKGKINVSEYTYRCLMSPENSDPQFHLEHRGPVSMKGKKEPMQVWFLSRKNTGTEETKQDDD
Experiment: Cell-Based sGC Functional Assay (CASA Assay)
Details: CHO-K1/sGC cells; for EC50: intracellular cGMP by HTRF, 1 hr at 37° C., IP from 4P fit, presence or absence of 1 μM DETA-NO not given; for Emax: cGMP as percentage of maximum cGMP production of Compound A (=100% activation), read-out: % ACT (percent activation)
From the text: Biological Assays: Cell-Based sGC Functional Assay (CASA Assay)
sGC is a heme-containing enzyme that converts GTP to secondary messenger cGMP. Increases in cGMP levels affect several physiological processes including vasorelaxation through multiple downstream pathways. […] Heme-dependent activators (HDAs) preferentially activate sGC containing a ferrous heme group. To determine the effect of sGC activators on enzyme activity, the CASA assay was developed to monitor the generation of cGMP in a cell line that stably expresses the heterodimeric sGC protein.
A CHO-K1 cell line stably expressing the sGC α1/β1 heterodimer was generated using a standard transfection protocol. CHO-K1 cells were transfected with plasmids pIREShyghsGCα1 and pIRESneo-hsGCβ1 simultaneously using FUGENE reagent. Clones that stably express both subunits were selected with hygromycin and neomycin for ˜2 weeks. Clone #7 was chosen for the assay and was designated CHO-K1/sGC. CHO-K1/sGC cells were maintained in F-K12 medium containing 10% heat-inactivated Fetal Bovine Serum (FBS), 100 μg/mL penicillin/streptomycin, 0.5 mg/mL hygromycin and 0.25 mg/mL G418. The cells were then cryopreserved in LN2. On the day of the assay, cells were thawed and resuspended in EBSS Assay Buffer (EAB, Sigma, E3024) supplemented with 5 mM MgCl2, 10 mM HEPES (4-(2-hydroxyethyl)piperazine-1-ethanesulfonic acid) and 0.05% BSA (bovine serum albumin) and cell density was then adjusted to 4×10^5/mL with EAB. IBMX (3-isobutyl-1-methylxanthin, 0.5 mM) was added to inhibit degradation of cGMP. Compounds were diluted from DMSO stock solutions and added to the assay at a final DMSO concentration of 2.5%. Cells were incubated with compounds in the presence and absence of 1 μM of Diethylenetriamine/nitric oxide adduct (DETA-NO; Sigma, 17018) for 1 hr at 37° C. At the end of the incubation period, the reaction was terminated and the cells were lysed with the detection reagents from Cisbio Kits. The level of intracellular cGMP was determined using an HTRF-based assay kit (CisBio, 62GM2PEC), which detects the displacement of a fluorescence labeled cGMP from its specific antibody. The cGMP produced by test compounds was directly compared to the maximum cGMP production (this value was set to equal 100% activation) of the published sGC-HDA Compound A:
[drawing 123] (Example 1 in WO 2010/065275, published Jun. 10, 2010). The test compounds' activity was then expressed as a percentage of Compound A, the standard in every experiment. This percent activation was calculated either in the presence or absence of DETA-NO which was then plotted. IP and maximum fold induction was derived using ADA analysis software for 4P fit.

Row | Compound | EC50 [nM] | Emax [%]
1 | [2H]C([2H])([2H])n1ncc2c(-c3nc(N)c4c(n3)NC(=O)C4(C)c3ccc(-c4cnn(C)c4)cc3)nc(CCC(F)(F)C(F)(F)F)nc21 (single isomer, unassigned) [Example 46, 4-Amino-5-methyl-5-(4-(1-methyl-1H-pyrazol-4-yl)phenyl)-2-(6-(3,3,4,4,4-pentafluorobutyl)-1-trideuteriomethyl-1H-pyrazolo[3,4-d]pyrimidin-4-yl)-5H-pyrrolo[2,3-d]pyrimidin-6(7H)-one] | 90 | 91
2 | C#CC1(C2CC2)C(=O)Nc2nc(-c3nc(CCC(F)(F)C(F)(F)F)nc4c3cnn4C)nc(N)c21 (single isomer, unassigned) [Example 24, 4-Amino-5-cyclopropyl-5-ethynyl-2-(1-methyl-6-(3,3,4,4,4-pentafluorobutyl)-1H-pyrazolo[3,4-d]pyrimidin-4-yl)-5H-pyrrolo[2,3-d]pyrimidin-6(7H)-one] | 105 | 120
3 | [2H]C([2H])([2H])n1ncc2c(-c3nc(N)c4c(n3)NC(=O)C4(C(=O)Nc3ccccn3)C3CC3)nc(CCC(F)(F)C(F)(F)F)nc21 (single isomer, unassigned) [Example 41, 4-Amino-5-cyclopropyl-2-(6-(3,3,4,4,4-pentafluorobutyl)-1-trideuteriomethyl-1H-pyrazolo[3,4-d]pyrimidin-4-yl)-6-oxo-N-(pyridin-2-yl)-6,7-dihydro-5H-pyrrolo[2,3-d]pyrimidine-5-carboxamide] | 77 | 100
4 | [2H]C([2H])([2H])n1ncc2c(-c3nc(N)c4c(n3)NC(=O)C4(C)C(=O)Nc3cnn(C)c3)nc(CCC(F)(F)C(F)(F)F)nc21 (single isomer, unassigned) [Example 42, 4-amino-5-methyl-N-(1-methyl-1H-pyrazol-4-yl)-2-(6-(3,3,4,4,4-pentafluorobutyl)-1-trideuteriomethyl-1H-pyrazolo[3,4-d]pyrimidin-4-yl)-6-oxo-6,7-dihydro-5H-pyrrolo[2,3-d]pyrimidine-5-carboxamide] | 111 | 134
5 | C#CC1(C)C(=O)Nc2nc(-c3nc(CCC(F)(F)C(F)(F)F)nc4c3cnn4C)nc(N)c21 (single isomer, unassigned) [Example 21, 4-Amino-5-ethynyl-5-methyl-2-(1-methyl-6-(3,3,4,4,4-pentafluorobutyl)-1H-pyrazolo[3,4-d]pyrimidin-4-yl)-5H-pyrrolo[2,3-d]pyrimidin-6(7H)-one] | 92 | 106
6 | [2H]C([2H])([2H])n1ncc2c(-c3nc(N)c4c(n3)NC(=O)C4(C)C(=O)NCC)nc(CCC(F)(F)C(F)(F)F)nc21 (single isomer, unassigned) [Example 39, 4-Amino-N-ethyl-5-methyl-2-(6-(3,3,4,4,4-pentafluorobutyl)-1-trideuteriomethyl-1H-pyrazolo[3,4-d]pyrimidin-4-yl)-6-oxo-6,7-dihydro-5H-pyrrolo[2,3-d]pyrimidine-5-carboxamide] | 43 | 104
7 | [2H]C([2H])([2H])n1ncc2c(-c3nc(N)c4c(n3)NC(=O)C4(CC)C(=O)NC3CC3)nc(CCC(F)(F)C(F)(F)F)nc21 (single isomer, unassigned) [Example 34, 4-Amino-N-cyclopropyl-5-ethyl-2-(6-(3,3,4,4,4-pentafluorobutyl)-1-trideuteriomethyl-1H-pyrazolo[3,4-d]pyrimidin-4-yl)-6-oxo-6,7-dihydro-5H-pyrrolo[2,3-d]pyrimidine-5-carboxamide] | 143 | 122
8 | [2H]C([2H])([2H])n1ncc2c(-c3nc(N)c4c(n3)NC(=O)C4(C)c3ccc(C#N)cc3)nc(CCC(F)(F)C(F)(F)F)nc21 (single isomer, unassigned) [Example 47, 4-(4-Amino-5-methyl-2-(6-(3,3,4,4,4-pentafluorobutyl)-1-trideuteriomethyl-1H-pyrazolo[3,4-d]pyrimidin-4-yl)-6-oxo-6,7-dihydro-5H-pyrrolo[2,3-d]pyrimidin-5-yl)benzonitrile] | 30 | 95

Other lines, results leading:

Row | EC50 [nM] | Emax [%] | Compound
9 | 299 | 94 | [2H]C([2H])([2H])n1nc(C2CC2)c2c(-c3nc(N)c4c(n3)NC(=O)C4(C)c3ccc(F)cc3)nc(CCC(F)(F)C(F)(F)F)nc21 (centres unmarked) [Example 59, 4-Amino-2-(3-cyclopropyl-6-(3,3,4,4,4-pentafluorobutyl)-1-trideuteriomethyl-1H-pyrazolo[3,4-d]pyrimidin-4-yl)-5-(4-fluorophenyl)-5-methyl-5H-pyrrolo[2,3-d]pyrimidin-6(7H)-one]
10 | 87 | 118 | Cn1ncc2c(-c3nc(N)c4c(n3)NC(=O)C4(C)NCC3CC3)nc(CCC(F)(F)C(F)(F)F)nc21 (centres unmarked) [Example 54, 4-Amino-5-((cyclopropylmethyl)amino)-5-methyl-2-(1-methyl-6-(3,3,4,4,4-pentafluorobutyl)-1H-pyrazolo[3,4-d]pyrimidin-4-yl)-5H-pyrrolo[2,3-d]pyrimidin-6(7H)-one]
11 | 502 | 76 | Cn1ccc2c(-c3nc(N)c4c(n3)NC(=O)C4(C)C)nc(CCC(F)(F)C(F)(F)F)nc21 [Example 63, 4-Amino-5,5,7′-trimethyl-2′-(3,3,4,4,4-pentafluorobutyl)-5H,7′H-[2,4′-bipyrrolo[2,3-d]pyrimidin]-6(7H)-one]
12 | 113 | 139 | [2H]C([2H])([2H])OC1(C)C(=O)Nc2nc(-c3nc(CCC(F)(F)C(F)(F)F)nc4c3cnn4C)nc(N)c21 (centres unmarked) [Example 57, 4-Amino-5-methyl-5-trideuteriomethoxy-2-(1-methyl-6-(3,3,4,4,4-pentafluorobutyl)-1H-pyrazolo[3,4-d]pyrimidin-4-yl)-5H-pyrrolo[2,3-d]pyrimidin-6(7H)-one]
13 | 632 | 70 | Cn1nc(Cl)c2c(-c3nc(N)c4c(n3)NC(=O)C4(C)c3ccc(F)cc3)nc(CCC(F)(F)C(F)(F)F)nc21 (single isomer, unassigned) [Example 58, 4-Amino-2-(3-chloro-1-methyl-6-(3,3,4,4,4-pentafluorobutyl)-1H-pyrazolo[3,4-d]pyrimidin-4-yl)-5-(4-fluorophenyl)-5-methyl-5H-pyrrolo[2,3-d]pyrimidin-6(7H)-one]
